Measurements taken from patent publication US9296778B2, “3′,5′-cyclic phosphate prodrugs for HCV infection” (Idenix Pharmaceuticals, Inc., priority 2012, dated 2016).

Key:
[1] = Stability in simulated intestinal fluid; type: in vitro ADME; conditions: 100 μM, 2 hours at 37° C., percent of the peak area at time zero
Protocol: Simulated gastric and intestinal fluids containing pepsin and pancreatin respectively were prepared according to the U.S. Pharmacopoeia USP291 procedure (www.pharmacopeia.cn/v29240/usp29nf24s0_ris1s126.html). Compounds (final concentration 100 μM) were incubated in duplicate in the appropriate fluid for 2 hours at 37° C. The samples were quenched with 200 μl cold acetonitrile, vortexed for 30 seconds and then centrifuged at 16,100 g for 10 min. The supernatants were analyzed by HPLC on a C-18 column with UV detection at 252 nm. The time 0 samples were prepared by adding SGF or SIF fluid to the quenching solvent followed by the test compound. Stability of the compounds was determined by peak area of the test compounds after incubation and calculated as percent of the peak area observed at time zero.

HCV genotype 1b replicon = assay: HCV Replicon Assay; type: cell-based; conditions: Zluc cells (Huh-7-derived, HCV genotype 1b replicon, luciferase reporter), 72 hours; read-out: HCV Replicon EC50
Protocol: Huh-7-derived cell line (Zluc) that harbors an HCV genotype 1b replicon and a luciferase reporter gene was grown in Dulbecco's Modified Eagle Medium (DMEM) supplemented with 10% fetal bovine serum, 2 mM GlutaMAX, 1% MEM nonessential amino acids, 100 IU/mL penicillin, 100 μg/mL streptomycin, and 0.5 mg/mL Geneticin® (G418). For dose response testing the cells were seeded in 96-well plates at 7.5×10^3 cells per well in a volume of 50 μL, and incubated at 37° C./5% CO2. Drug solutions were made up freshly in Huh-7 media as 2× stocks. Ten additional 5-fold dilutions were prepared from these stocks in DMEM without G418. At least three hours after Zluc cells were seeded, drug treatment was initiated by adding 50 μL of drug dilutions to the plates in duplicate. Final concentrations of drug ranged from 100 μM to […]. Cells were then incubated at 37° C./5% CO2. Alternatively, compounds were tested at two concentrations (1 μM and 10 μM). […] For this, media was removed from the plates via gentle tapping. Fifty microliters of ONE-glo luciferase assay reagent was added to each well. The plates were shaken gently for 3 min at room temperature and luminescence was measured on a Victor^3 V 1420 multilabel counter (Perkin Elmer) with a 1 second read time using a 700 nm cut-off filter. The EC50 values were calculated from dose response curves from the resulting best-fit equations determined by Microsoft Excel and XLfit 4.1 software. When screening at two fixed concentrations, the results were expressed as % inhibition at 1 μM and 10 μM.

[2] = Stability in fresh human whole blood; type: in vitro ADME; conditions: 0.5 μM, percent unchanged test compound
Protocol: (§1) Stability of compounds were determined in fresh human whole blood with K2EDTA as the anticoagulant (stored refrigerated at 2-8° C. and used within 7 days of receipt). The experiment was conducted with three replicates for each time point. Whole blood, pre-incubated at 37° C. for 10-15 minutes, was fortified with a solution of test compound for a final concentration of 0.5 μM and mixed for 30 sec. At intervals (0, 0.5, 1 and 2 hr), three 50 μL aliquots were combined with 200 μL (each) of an ice-cold solution of the internal standard (carbutamide 500 ng/mL in acetonitrile). The samples were vortexed for 30 sec and then centrifuged at 16,100 g for 5 min. The supernatant was analyzed by LC-MS/MS. The MS peak area ratio of the test compounds versus the internal standard was calculated and percent unchanged test compound was calculated for each time point using this ratio.

Stability in mouse blood = type: in vitro ADME; conditions: on ice, percent unchanged test compound
Protocol: as §1
The stability in mouse blood was determined on ice at 0, 0.5 and 1 hr as herein.

Zluc cells = assay: cytotoxicity evaluation (CellTiter-Blue Cell Viability Assay); conditions: read-out: HCV Replicon CC50; Zluc cells, CellTiter-Blue
[3] = Liver pharmacokinetics following a single oral dose in CD-1 mice; type: in vivo; conditions: single oral dose 25 mg/kg in PEG 200, CD-1 male mice, given at 1 μmol/kg
Protocol: (§2) A single oral dose of test compound at 25 mg/kg in PEG 200 (dose volume 5 mL/kg) was administered to nine CD-1 male mice. Five untreated animals were used for the collection of control plasma and liver. Terminal plasma and liver samples were collected from three animals per time point at 4, 12 and 24 hours post dose. Liver specimens were collected from all animals immediately after the incision. Freezing forceps stored in liquid nitrogen were used to freeze the liver before excision.
Liver samples were analyzed for the active species 2′-methylguanosine triphosphate (2′-MeGTP) by LC-MS/MS. 2′-MeGTP levels were assayed by homogenizing (on ice) a known weight of mouse liver with 4× volume of 0.95 M trichloroacetic acid (TCA). Internal standard solution was added to the homogenate followed by neutralization with 20% ammonium hydroxide solution and addition of 500 μL 1% formic acid. The tissue samples were extracted by weak anion exchange solid phase extraction (SPE). Post extraction, the eluates were evaporated under nitrogen, followed by reconstitution before injection onto the LC-MS/MS system. The samples were chromatographed on a Luna NH2 column using a gradient system of ammonium acetate (1 mM to 20 mM and pH 8.0 to pH 10.0) in water and acetonitrile (70:30). The analyte was detected and quantified by tandem mass spectrometry in positive ion mode on an API4000 equipped with a Turbo Ionspray® interface. The calibration range was 10 to 10000 pmol/mL in mouse liver homogenate (50 to 50000 pmol/g of mouse liver).

mouse hepatocytes = assay: Release of active metabolite in mouse hepatocytes; type: in vitro ADME; conditions: 10 μM compound; for MsH AUC: mouse hepatocytes, 1, 4, 8, 12 and 24 hours
Protocol: (§3) Plates of fresh human and mouse hepatocytes were obtained on ice. The medium was removed and replaced with hepatocyte culture medium (William's E supplemented with penicillin-streptomycin, 1% L-glutamine, 1% insulin-transferrin-selenium and 0.1 μM Dexamethasone (Invitrogen) or with Invitro GRO HI medium complemented with Torpedo antibiotics (Celsis)). Cells were left overnight in an incubator at 37° C. to acclimatize to culture and the medium.
(§4) Hepatocyte incubations were conducted at a final volume of 0.5 mL hepatocyte culture medium/well (0.8 million cells/well for human and 0.5 million cells/well for mouse; 12 well plate no overlay, collagen coat). Culture medium from overnight incubation of cells was removed and replaced with fresh medium, pre-warmed to 37° C., containing 10 μM of test compound from a stock solution in DMSO (final DMSO concentration was 0.1%). At each specific time point, incubation medium was removed and cell monolayers were carefully washed two times with ice-cold PBS. Following the last wash, all PBS was carefully removed and 1.0 mL of extraction solution (ice-cold 70% methanol/30% water) added. Cells were scraped off and suspended in the extraction solution, transferred to 2 mL polypropylene microfuge tubes and intracellular contents extracted overnight at −20° C.
(§5) After the overnight treatment the cellular extracts were prepared by centrifugation at 16,000×g for 10 min to remove cellular debris. The remaining sample was then dried using a refrigerated centrivap concentrator. Dry extracts were reconstituted in 1000 μL of HPLC-grade water and centrifuged at 16,000×g for 10 min. Aliquots (100 μL each) of the supernatant were transferred into a 96 well plate and internal standard (4 ng/mL final concentration) was added as the internal standard (IS) for LC-MS/MS analysis.
(§6) The incubation time points were 6, 24 and 48 hours for human hepatocytes and 1, 4, 8, 12 and 24 hours for mouse hepatocytes.

[4] = Plasma pharmacokinetics following a single oral dose in CD-1 mice; type: in vivo; conditions: single oral dose 25 mg/kg in PEG 200, CD-1 male mice, given at 1 μmol/kg
Protocol: as §2
Plasma samples were analyzed for 2′-methylguanosine (2′-MeG) by LC-MS/MS. The internal standard (IS) was 2′-MeG-D3. For protein precipitation and extraction, each plasma sample (50 μL) was treated with 500 μL of 0.2% formic acid in acetonitrile and 20 μL of the internal standard working solution. After vortexing and centrifugation, 500 μL of the sample extracts were transferred to a new plate, dried under N2 at ˜28° C. and reconstituted with 75 μL of 0.2% FA in water. The extracts were chromatographed on an Aquasil C18 column using a gradient system of 0.2% formic acid in water and acetonitrile. The analytes were detected and quantified by tandem mass spectrometry in positive ion mode on an MDS Sciex API5000 equipped with a Turbo Ionspray® interface. The calibration range was 0.500 (LLOQ) to 200 ng/mL in mouse plasma.

fresh human hepatocytes = assay: Release of active metabolite in fresh human hepatocytes; type: in vitro ADME; conditions: 10 μM compound; for FHH TP Cmax: fresh human hepatocytes; for FHH TP AUC: fresh human hepatocytes, 6, 24 and 48 hours
Protocol: as §3, §4, §5, §6

| SMILES | Stability SIF [1] [%] | EC50 (HCV genotype 1b replicon) [µM] | Stability WB_Human (37° C.; 2 hr) [2] [%] | Stability WB_Mouse (ice; 1 hr) (Stability in mouse blood) [%] | CC50 (Zluc cells) [µM] | Ms Liver 2′-MeGTP AUC ([3]; 25 mg/kg) [pmol · hr/g at 1 μmol/kg] | MsH AUC (mouse hepatocytes) | Ms Plasma 2′-MeG AUC ([4]; 25 mg/kg) [pmol · hr/mL at 1 μmol/kg] | Ms Plasma 2′-MeG Cmax ([4]; 25 mg/kg) [pmol/mL at 1 μmol/kg] | FHH TP Cmax (fresh human hepatocytes) | FHH TP AUC (fresh human hepatocytes) | Ms Liver 2′-MeGTP AUC [3] [pmol · hr/g at 1 μmol/kg] | MsH Cmax (mouse hepatocytes; mouse hepatocytes) [pmol/mill cells] | Ms Plasma 2′-MeG AUC [4] [pmol · hr/mL at 1 μmol/kg] | Ms Plasma 2′-MeG Cmax [4] [pmol/mL at 1 μmol/kg] |
| --- | --- | --- | --- | --- | --- | --- | --- | --- | --- | --- | --- | --- | --- | --- | --- |
| CCOc1nc(N)nc2c1ncn2[C@@H]1O[C@@H]2COP(=O)(OCCCC(=O)OC(C)C)O[C@H]2[C@@]1(C)F (single isomer, unassigned; diastereomer 1) [Compound 3 Diastereomer 1] | 92 | < 0.25 | 20.5 | 14 | < 50 | – | – | – | – | – | – | – | – | – | – |
| CC(C)OC(=O)CCCOP1(=O)OC[C@H]2O[C@@H](n3cnc4c(=O)[nH]c(N)nc43)[C@](C)(F)[C@@H]2O1 (single isomer, unassigned; diastereomer 1) [Compound 6 Diastereomer 1] | – | 1 to 10 | – | – | > 50 | 35 | BLD^a | 13 | 1.3 | – | – | – | – | – | – |
| CCOC(=O)CCOP1(=O)OC[C@H]2O[C@@H](n3cnc4c(OCC)nc(N)nc43)[C@](C)(F)[C@@H]2O1 (single isomer, unassigned; diastereomer 1) [Compound 8 Diastereomer 1] | 96 | < 0.25 | 89 | – | > 50 | – | – | – | – | BLD^a | BLD^a | – | – | – | – |
| CCOc1nc(N)nc2c1ncn2C1OC2COP(=O)(OCC(NC(=O)OC)C(=O)OC(C)C)OC2C1(C)O (single isomer, unassigned; diastereomer 1) [Compound 14 Diastereomer 1] | 88 | < 0.25 | 62 | – | < 50 | – | – | – | – | 19 pmol/mill cells | 224 pmol · hr/mill cells | – | – | – | – |
| CCOc1nc(N)nc2c1ncn2[C@@H]1O[C@@H]2COP(=O)(OCCC(=O)OC(C)C)O[C@H]2[C@@]1(C)F (single isomer, unassigned; diastereomer 1) [Compound 21 Diastereomer 1] | 91 | – | 86 | – | – | – | BLD^a | – | – | BLD^a | BLD^a | – | – | – | – |
| CCOc1nc(N)nc2c1ncn2[C@@H]1O[C@@H]2COP(=O)(OCCCC(=O)OC(C)C)O[C@H]2[C@@]1(C)F (single isomer, unassigned; diastereomer 2) [Compound 3 Diastereomer 2] | – | – | – | – | – | – | 3265 pmol · hr/mill cells | – | – | 146 pmol/mill cells | 4574 pmol · hr/mill cells | 3200 | 91 | 160 | 17 |
| CC(C)OC(=O)CCCOP1(=O)OC[C@H]2O[C@@H](n3cnc4c(=O)[nH]c(N)nc43)[C@](C)(F)[C@@H]2O1 (single isomer, unassigned; diastereomer 2) [Compound 6 Diastereomer 2] | – | < 0.25 | – | – | > 50 | 530 | BLD^a | 54 | 7.2 | – | – | – | – | – | – |
| CCOC(=O)CCOP1(=O)OC[C@H]2O[C@@H](n3cnc4c(OCC)nc(N)nc43)[C@](C)(F)[C@@H]2O1 (single isomer, unassigned; diastereomer 2) [Compound 8 Diastereomer 2] | 94 | < 0.25 | 34 | – | > 50 | – | – | – | – | BLD^a | BLD^a | – | – | – | – |
| CCOc1nc(N)nc2c1ncn2C1OC2COP(=O)(Oc3ccc(CC(NC(=O)OC)C(=O)OC(C)C)cc3)OC2C1(C)F (single isomer, unassigned; diastereomer 2) [Compound 13 Diastereomer 2] | 72 | < 0.25 | 70 | 1 | > 50 | – | – | – | – | 34 pmol/mill cells | 812 pmol · hr/mill cells | – | – | – | – |
| CCOc1nc(N)nc2c1ncn2[C@@H]1O[C@@H]2COP(=O)(OCCC(=O)OC(C)C)O[C@H]2[C@@]1(C)O (single isomer, unassigned; diastereomer 2) [Compound 22 Diastereomer 2] | 101 | < 0.25 | 88 | – | > 50 | – | BLD^a | – | – | 28 pmol/mill cells | 742 pmol · hr/mill cells | – | – | – | – |
